Assay results taken from paper PMC4992173, “Divergent synthesis and identification of the cellular targets of deoxyelephantopins” (Nature Communications, 2016).

Columns and labels:
MCF7 cells = test: Caspase activation (FITC-VAD-FMK), Annexin V and propidium iodide staining; format: cell-based, human; settings: 20 μM, 8 h
Method: (§1) We began our biological investigations by assaying the cytotoxicity of natural deoxyelephantopin (DEP) and its unnatural analogues in four different cancer cell lines (Fig. 5a, Supplementary Figs 6–8).
Figure 5 Assessing the cytotoxicity of deoxyelephantopin (DEP) and analogues. (a) Cell viability measurements in four different cancer cell lines. Cells were treated with compounds for 3 days, the nuclei were stained with DAPI and counted (EC50 values±s.d. shown; n=3). **P<0.005 and ***P<0.0005 by two-sided Student's t-test. (b) Detection of caspase activation and apoptosis in MCF7 cells using FITC-VAD-FMK fluorescent probe (top) or Annexin V staining (bottom). The cells were treated with 1 μM staurosporine (positive control) or 20 μM deoxyelephantopin for 8 h. Confocal microscopy images are shown. EC50, effector concentration for half-maximum response. Scale bars, 30μm. […]
Biological materials. […] Protein concentration was determined using the Bradford assay (Bio-Rad).
(§2) Cell culture and preparation of lysates. […] Cells were lysed by sonication to form cell lysates and protein concentration was determined using the Bradford […]
(§3) ’ cells/mL and HeLa: 1 ’ cells/mL) in a 96-well plate and allowed to attach overnight. […] Cells were imaged using a SpectraMax i3 plate reader equipped with a SpectraMax MiniMax imaging cytometer (Molecular Devices). […]
(§4) Caspase activity labeling for fluorescence cell imaging. […]

[1] = Cell viability in MCF7 cells, compounds at 1 μM for 3 days; format: cell-based; settings: human, 1 μM concentration, read-out: cellular viability
Method: as §1
Supplementary figure 8: Cell viability measurements in MCF7 cells. All compounds were tested at 1 μM concentration for 3 days (values±SD are shown; n = 3).
Supplementary figure 9: Propidium iodide and DAPI staining of MCF7 cells treated with either DMSO, 10% ethanol (necrosis positive control) or 20 µM DEP for 8 h. Scale bar […]
Biological materials. All materials were purchased from Sigma Aldrich unless otherwise stated. DMEM/High glucose media, phosphate buffered saline (PBS), MEM Non-Essential Amino Acids, Penicillin-Streptomycin (Pen/Strep) and Trypsin-EDTA were obtained from Life Technologies. Protein concentration was determined using the Bradford assay (Bio-Rad).
as §2, §3, §4

Compound: C=C(C)C(=O)O[C@H]1CC2=C[C@@H](C/C(C)=C/[C@H]3OC(=O)C(=C)[C@H]13)OC2=O [deoxyelephantopin]
- cause of cell death (FITC-VAD-FMK, Annexin-V-FLUOS staining) (MCF7 cells): caspase-mediated apoptosis
- necrotic death (propidium iodide staining) (MCF7 cells): did not indicate any significant necrotic death
- viability at 3 days, 1 µM [1]: < 30%
